# From US11278509B2, “Lithium salts of N-substituted glycine compounds and uses thereof” (SyneuRx International (Taiwan) Corp., priority 2017, dated 2022)
# Assays:
# Format in all cases: in vivo, C57BL/6J male mice
# MK801-treated mice [1] = test: Open field task, MK801-induced hyper-locomotion; settings: for effect on MK-801 induced hyper-locomotion activity (travel distance, open field): 60 minutes
# Protocol: (§1) All C57BL/6J male mice were purchased from Laboratory Animal Center of the College of Medicine of National Taiwan University. The mice were group housed (3-5 mice per cage) with food and water available ad libitum in polysulfone ventilated cages (Alternative Design, AR, USA) in the animal rooms of the Psychology Department of National Taiwan University. The colony was maintained on a 12/12-h light/dark cycle at the temperature of 22±2° C. and all behavioral studies were performed during dark cycle. All animals used in this study were adult mice (at least 2.5 months of age). All animal procedures were performed according to the protocols approved by Animal Care and Use Committee of National Taiwan University.
# (§2) MK801, also known as dizocilpine, is an antagonist of NMDA receptor. Mice in Groups 2-6 were received an acute administration of MK-801 (a NMDA receptor antagonist, dissolved in normal saline, 0.1 or 0.2 mg/kg, i.p.) 20 min prior to behavioral tests. Mice in Groups 3-6 were received an oral gavage of N-methylglycine or lithium N-methylglycine, respectively (dissolved in PBS) 15 min prior to MK801 administration. The […] molarities of lithium N-methylglycine (300 mg/kg and 1000 mg/kg) were equal to those of N-methylglycine (278 mg/kg and 927 mg/kg), respectively.
# (§3) Two cohorts ([…]) of mice were used in the present study, the cohort 1 (48 mice) were sequentially tested with open field (for MK801-induced hyper-locomotion) and pre-pulse inhibition (for sensor-motor gap function) tasks. The mice in cohort 2 (34 mice) were sequentially tested with Barnes maze (spatial learning and memory) task.
# The open field task is a common measure of novel environment-induced exploratory behavior and general activity in both mice and rats. In the present study, the mice were placed in a Plexiglas cage (37.5 cm×21.5 cm×18 cm) under 50-65 lux light intensity, and their spontaneous locomotor activity was measured for 60 minutes using the EthoVision video tracking system (Noldus Information Technology, the Netherlands). The travel distance of each mouse was measured as an index of locomotion activity.
# MK801-treated mice [2] = test: Pre-pulse inhibition task, sensorimotor gating
# Protocol: as §1
# MK801, also known as dizocilpine, is an antagonist of NMDA receptor. Mice in Groups 2-6 were received an acute administration of MK-801 (a NMDA receptor antagonist, dissolved in normal saline, 0.1 or 0.2 mg/kg, i.p.) 20 min prior to behavioral tests. […]
# Pre-pulse inhibition was used as an index of sensorimotor gating function using SR-LAB startle apparatus (San Diego Instruments, San Diego, Calif., USA). […] The percentage of pre-pulse inhibition was evaluated by the following formula: % PPI=100×[(PA score)−(pp-P score)]/(PA score), where the PA score was the average of the PA value in the middle blocks.
# MK801-treated mice [3] = test: Barnes maze task, spatial learning and memory; settings: MK-801 0.2 mg/kg i.p.
# Protocol: as §1, §2, §3
# Mice were tested in a Barnes maze to examine spatial learning and memory as described previously (Barnes, 1979). This Barnes maze paradigm has been commonly examined in mouse models of CNS disorders, including, but not limited to, schizophrenia, depression, obsessive compulsive disorder, post-traumatic stress disorder, addiction disorders, Alzheimer's disease, frontotemporal dementia, Parkinson's disease, Duchenne muscular dystrophy, stroke, and Fragile X syndrome (see Cook et al., 2014; Gotz and Ittner, 2008; Hendriksen and Vles, 2008; Conklin et al., 2000; Song et al., 2006; Lai et al., 2014; Vasterling et al., 2002; Hyman, 2005; Schaar et al., 2010; Santos et al., 2014; Zhu et al., 2007; Deckersbach et al., 2000). The testing apparatus was an elevated (50 cm above the floor) circular Plexiglas plate (100 cm in diameter) with 20 holes (7 cm in diameter, 7 cm between holes) evenly spaced around the perimeter. Mice were trained on the plate to identify an escape box (25×8×6 cm) hidden behind the target hole, which was designated as an analog to the hidden platform in the Morris water maze task. The location of the target hole was selected for a given mouse but randomized across mice. Mice were initially placed in the center of the plate covered by an opaque cylinder, and the cylinder was removed 10 s after the beginning of the trial with both an aversive tone (440 Hz, 85 dB) and light (100 lux) switched on. […] The spatial memory was measured by the “probe test.” All the training trials and the probe tests were videotaped for 3 min, and then the escape latency for the training trials and the percentage of time in different quadrants (target, left, right, and opposite) during the probe test were analyzed. […]
# [4] = MK-801 0.1 or 0.2 mg/kg i.p. 20 min prior to test
smiles,measurement,setting,value
"C[C@]12N[C@H](Cc3ccccc31)c1ccccc12 [MK-801, dizocilpine, reference compound]",locomotion in the open field test compared to the control group,MK801-treated mice [1]; [4],induced the hyper-locomotion
same,sensorimotor gating function in the pre-pulse inhibition test compared to the control group,MK801-treated mice [2]; [4],induced the sensorimotor gating function deficit
same,learning ability and memory in the Barnes maze task compared to the control group,MK801-treated mice [3],poor learning ability and memory deficit
"CNCC(=O)O [N-methylglycine, reference compound]","effect on MK-801 induced hyper-locomotion activity (travel distance, open field)",MK801-treated mice [1]; 927 mg/kg oral gavage 15 min prior to MK801 i.p.,marginally effective
same,memory phase (probe test) after MK-801 induced memory deficit,MK801-treated mice [3]; dose not stated,not effective
CNCC(=O)O.[Li] [lithium N-methylglycine],dose dependence of effect on MK-801 induced hyper-locomotion,MK801-treated mice [1]; 300 mg/kg and 1000 mg/kg oral gavage + MK-801,Dose-dependent effect
same,"effect on MK-801 induced hyper-locomotion activity (travel distance, open field)",MK801-treated mice [1]; 300 mg/kg oral gavage 15 min prior to MK801 i.p.,effective
same,"effect on MK-801 induced hyper-locomotion activity (travel distance, open field)",MK801-treated mice [1]; 1000 mg/kg oral gavage 15 min prior to MK801 i.p.,effective
same,"reducing hyperactivity induced by MK-801, compared with N-methylglycine",MK801-treated mice [1]; equal molarities: 300/1000 mg/kg vs 278/927 mg/kg,much more effective than N-methylglycine
same,effect on MK-801 induced deficit in pre-pulse inhibition (% PPI),"MK801-treated mice [2]; 300 mg/kg and 1000 mg/kg oral gavage + MK801, prepulse 78, 82, 90 dB, especially at 90 dB",alleviated
same,learning phase (escape latency in training trials) after MK-801 induced learning deficit,MK801-treated mice [3]; 1000 mg/kg oral gavage,enhances the learning
same,"recovery of memory deficit induced by MK-801, compared with N-methylglycine",MK801-treated mice [3],much superior as compared with N-methylglycine
same,"memory phase (time in target zone, probe test) after MK-801 induced memory deficit",MK801-treated mice [3]; high dose (1000 mg/kg) oral gavage,completely ameliorated the memory deficit
